Reference: US20210107871A1 (priority 2017, published 2021)

Test system: pseudotype VSV (expressing GFP) having the surface glycoprotein of Ebola virus (zaire sp.)
Test: microbe, parasite or virus in culture
Type: cell-based
Details: for activity at 0.312 µM / activity at 0.625 µM / activity at 1.25 µM / activity at 2.5 µM / activity at 5 µM / activity at 0.005 µM / activity at 0.02 µM / activity at 0.078 µM: Vesicular stomatitis virus, Vero C1008, 18 h, read-out: Viral Infection rate (%); for activity at 0.312 µM: Compound Conc. 0.312 μM; for activity at 0.625 µM: Compound Conc. 0.625 μM; for activity at 1.25 µM: Compound Conc. 1.25 μM; for activity at 2.5 µM: Compound Conc. 2.5 μM; for activity at 0.005 µM: Compound Conc. 0.005 μM; for activity at 0.02 µM: Compound Conc. 0.020 μM; for activity at 0.078 µM: Compound Conc. 0.078 μM

Row | SMILES | activity at 0.312 µM | activity at 0.625 µM | activity at 1.25 µM | activity at 2.5 µM | activity at 5 µM (Compound Conc. 5 μM) | activity at 0.005 µM | activity at 0.02 µM | activity at 0.078 µM | Viral Infection rate (%) (Compound Conc. 5 μM)
1 | CCN(CC)CCCN(c1ccc(OC)cc1[N+](=O)[O-])S(=O)(=O)c1ccccc1 [4-1, N-[3-(diethylamino)propyl]-N-(4-methoxy-2-nitro-phenyl)benzensulfonamide] | 87.5% | ~38% | ~12% | 2.83% | 1.83% |  |  |  | 
2 | CCN(CC)CCCN(c1ccc(OC)cc1[N+](=O)[O-])S(=O)(=O)c1ccc(F)cc1 [4-3, 4-fluoro-N-[3-(diethylamino)propyl]-N-(4-methoxy-2-nitro-phenyl)benzensulfonamide] | 105% | 88.1% | 52.8% | 18.4% | 3.8% |  |  |  | 
3 | CCN(CC)CCCN(c1ccc(OC)cc1[N+](=O)[O-])S(=O)(=O)c1cccc(F)c1 [4-4, 3-fluoro-N-[3-(diethylamino)propyl]-N-(4-methoxy-2-nitro-phenyl)benzensulfonamide] | 84.4% | 71.3% | 29.7% | 8.13% | 2.05% |  |  |  | 
4 | CCN(CC)CCCN(c1ccc(OC)cc1[N+](=O)[O-])S(=O)(=O)c1ccccc1F [4-5, 2-fluoro-N-[3-(diethylamino)propyl]-N-(4-methoxy-2-nitro-phenyl)benzensulfonamide] |  | 94.2% | 54.9% |  | 3.18% |  |  |  | 
5 | CCN(CC)CCCN(c1ccc(OC)cc1[N+](=O)[O-])S(=O)(=O)c1cccc(C)c1 [4-6, 3-methyl-N-[3-(diethylamino)propyl]-N-(4-methoxy-2-nitro-phenyl)benzenesulfonamide] | 91.2% | 91.1% | 57.1% | 20.1% | 3.8% |  |  |  | 
6 | CCN(CC)CCCN(c1ccc(OC)cc1[N+](=O)[O-])S(=O)(=O)c1ccccc1C [4-7, 2-methyl-N-[3-(diethylamino)propyl]-N-(4-methoxy-2-nitro-phenyl)benzensulfonamide] | 87.2% | 68.4% | 37% | 12.9% | 5.08% |  |  |  | 
7 | CCN(CC)CCCN(c1ccccc1-c1ccccc1)S(=O)(=O)c1ccccc1 [4-8, N-[3-(diethylamino)propyl]-N-(2-phenyl-phenyl)benzensulfonamide] | 89% |  | 10.8% | 1.93% | 1.11% |  |  |  | 
8 | CCN(CC)CCCN(c1ccc(OC)cc1[N+](=O)[O-])S(=O)(=O)c1cccc2ccccc12 [4-9, N-[3-(diethylamino)propyl]-N-(4-methoxy-2-nitro-phenyl)naphthalene-1-sulfonamide] | 82.5% | 58.6% | 20.8% |  | 2.32% |  |  |  | 
9 | CCN(CC)CCCN(c1ccc(OC)cc1[N+](=O)[O-])S(=O)(=O)c1ccc2ccccc2c1 [4-10, N-[3-(diethylamino)propyl]-N-(4-methoxy-2-nitro-phenyl)naphthalene-2-sulfonamide] | 106% | 103% |  | 22.7% | 3.57% |  |  |  | 
10 | CCN(CC)CCCN(c1ccc(OC)cc1[N+](=O)[O-])S(=O)(=O)c1ccc(OC)cc1 [4-11, 4-methoxy-N-[3-(diethylamino)propyl]-N-(4-methoxy-2-nitro-phenyl)benzensulfonamide] | 88.3% |  |  |  | 2.09% |  |  |  | 
11 | CCN(CC)CCCN(c1ccccc1-c1ccccc1)S(=O)(=O)c1cccc2ccccc12 [4-13, N-[3-(diethylamino)propyl]-N-(2-phenyl-phenyl)naphthalene-1-sulfonamide] |  | 90.2% |  |  |  |  |  |  | 
12 | CCN(CC)CCCN(c1ccccc1-c1ccccc1)S(=O)(=O)c1ccc(OC)cc1 [4-14, 4-methoxy-N-[3-(diethylamino)propyl]-N-(2-phenyl-phenyl)benzensulfonamide] | 77.4% | 42.2% | 7.82% |  | 0.83% |  |  |  | 
13 | COc1ccc(N(CC2CCN(C(=O)OC(C)(C)C)CC2)S(=O)(=O)c2ccccc2)c(-c2ccccc2)c1 [4-18, t-butyl-4-[[N-(benzenesulfonyl)-4-methoxy-2-phenyl-anilino]methyl]piperidine-1-carboxylate] |  |  |  |  | 23.3% |  |  |  | 
14 | COc1ccc(N(CC2CCNCC2)S(=O)(=O)c2ccccc2)c(-c2ccccc2)c1 [4-19, N-(4-methoxy-2-phenyl-phenyl)-N-(4-piperidylmethyl)benzensulfonamide] | 83.3% | 78.5% | 52.3% |  | 2.2% |  |  |  | 
15 | COc1ccc(N(CC2CCCN(C(=O)OC(C)(C)C)C2)S(=O)(=O)c2ccccc2)c(-c2ccccc2)c1 (stereo not drawn) [4-22, t-butyl-3-[[N-(benzenesulfonyl)-4-methoxy-2-phenyl-anilino]methyl]piperidine-1-carboxylate] |  |  |  |  | ~8.7% |  |  |  | 
16 | COc1ccc(N(CC2CCCNC2)S(=O)(=O)c2ccccc2)c(-c2ccccc2)c1 (stereo not drawn) [4-23, N-(4-methoxy-2-phenyl-phenyl)-N-(3-piperidylmethyl)benzensulfonamide] | 100% |  |  | ~24.4% | 1.79% |  |  |  | 
17 | CCN1CCCC(CN(c2ccc(OC)cc2-c2ccccc2)S(=O)(=O)c2ccccc2)C1 (stereo not drawn) [4-25] | 58.1% | 24.3% | 2.51% | 0.14% | 0.14% |  |  |  | 
18 | CNCCCN(c1ccc(OC)cc1-c1ccccc1)S(=O)(=O)c1ccccc1 [4-30, N-(4-methoxy-2-phenyl-phenyl)-N-[3-(methylamino)propyl]-benzensulfonamide] |  | 80.8% |  | 4.17% |  | 92.6% | 91% | 78.1% | 
19 | COc1ccc(N(CCCNC(=O)OC(C)(C)C)S(=O)(=O)c2ccccc2)c(-c2ccccc2)c1 [4-31, t-butyl-N-[3-[N-(benzenesulfonyl)-4-methoxy-2-phenyl-anilino]propyl]carbamate] | ~100% |  |  |  | 8.51% |  |  |  | 
20 | COc1ccc(N(CCCN)S(=O)(=O)c2ccccc2)c(-c2ccccc2)c1 [4-32, N-(3-aminopropyl)-N-(4-methoxy-2-phenyl-phenyl)benzensulfonamide] | 86% | 82.4% | 57.8% | 15.8% | 0.47% |  |  |  | 
21 | COc1ccc(N(CCN(C)C)S(=O)(=O)c2ccccc2)c(-c2ccccc2)c1 [4-33, N-[3-(dimethylamimo)ethyl]-N-(4-methoxy-2-phenyl-phenyl)benzensulfonamide] | 81.1% | 71.3% | 17.1% | 1.51% | 0.1% |  |  |  | 
22 | COc1ccc(N(CCN2CCOCC2)S(=O)(=O)c2ccccc2)c(-c2ccccc2)c1 [4-34, N-(4-methoxy-2-phenyl-phenyl)-N-(2-morpholinoethyl)benzensulfonamide] |  |  | 76.9% | 40.2% | 4.56% |  |  |  | 
23 | COc1ccc(N(CCN2CCCCC2)S(=O)(=O)c2ccccc2)c(-c2ccccc2)c1 [4-35, N-(4-methoxy-2-phenyl-phenyl)-N-[2-(1-piperidyl)ethyl]benzensulfonamide] | 89.5% | 82.3% | 1.82% | 30.3% |  |  |  |  | 
24 | CCOc1ccc(N(CC2CCN(CC)CC2)S(=O)(=O)c2ccccc2)c(-c2ccccc2)c1 [4-39] |  |  | 116% |  |  | 98.4% | 103% |  | 
25 | COc1ccc(N(CC2CCCN(C)C2)S(=O)(=O)c2ccccc2)c(-c2ccccc2)c1 (stereo not drawn) [4-42] | 93% | 28.4% |  | 0.25% | ~0% | 95.6% | 101% | 102% | 0.00%
26 | CCN1CCC(CN(c2ccc(C(C)C)cc2-c2ccccc2)S(=O)(=O)c2ccccc2)CC1 [4-45, N-(4-isopropyl-2-phenyl-phenyl)-N-(1-ethyl-4-piperidylmethyl)benzensulfonamide] | 103% |  | 69.5% |  | 0.23% | 90.8% | 101% | 104% | 
27 | CCN1CCC(CN(c2ccc(C(C)(C)C)cc2-c2ccccc2)S(=O)(=O)c2ccccc2)CC1 [4-48, N-(4-t-butyl-2-phenyl-phenyl)-N-(1-ethyl-4-piperidylmethyl)benzensulfonamide] |  |  |  |  | 47.6% | 97.1% | 104% | 96.3% | 
28 | CCN1CCC(CN(c2ccc(OC)cc2-c2ccc(F)cc2)S(=O)(=O)c2ccccc2)CC1 [4-51, N-[2-(4-fluorophenyl)-4-methoxy-phenyl)-N-(1-ethyl-4-piperidylmethyl)benzensulfonamide] | 11.9% |  | 0.51% |  | 0% | 92.2% | 84.5% | 45% | 
29 | CCN1CCC(CN(c2ccc(OC)cc2-c2cccc(F)c2)S(=O)(=O)c2ccccc2)CC1 [4-54, N-[2-(3-fluorophenyl)-4-methoxy-phenyl)-N-(1-ethyl-4-piperidylmethyl)benzensulfonamide] | 28.6% |  | 0.1% |  | 0% |  | 90% | 74.5% | 
